Data taken from ChEMBL document CHEMBL3885881, “DrugMatrix”.

Species on record: Rattus norvegicus
Assay: DrugMatrix - Regimen: Daily Repeat
Format: toxicity, organism-based, Sprague-Dawley
Design: regimen Daily Repeat, gender Male, age 6-8 weeks
Conditions: in vivo, sc, […], route mini-PUMP - SUBCUTANEOUS, dose 0.065 mg/Kg, dose level High, vehicle 100 % SALINE; for ABSOLUTE BASOPHIL / ABSOLUTE EOSINOPHIL / ABSOLUTE LYMPHOCYTE / ABSOLUTE MONOCYTE / ABSOLUTE SEGMENTED NEUTROPHIL / BASOPHIL / EOSINOPHIL / ERYTHROCYTE COUNT / HEMATOCRIT / HEMOGLOBIN / LEUKOCYTE COUNT / LYMPHOCYTE / MEAN CORPUSCULAR HEMOGLOBIN / MEAN CORPUSCULAR HEMOGLOBIN CONCENTRATION / MEAN CORPUSCULAR VOLUME / MONOCYTE / NEUTROPHIL / NUCLEATED RED BLOOD CELLS / PLATELET COUNT: tissue Blood; for ALANINE AMINOTRANSFERASE / ALBUMIN / ALKALINE PHOSPHATASE / ASPARTATE AMINOTRANSFERASE / BLOOD UREA NITROGEN / CARBON DIOXIDE / CHLORIDE / CHOLESTEROL / CREATININE / GLUCOSE / LACTATE DEHYDROGENASE / LIPASE / PHOSPHORUS / POTASSIUM / SODIUM / TOTAL BILIRUBIN / TOTAL PROTEIN / URIC ACID: tissue Plasma

With `C[C@]12CCC(=O)C=C1CC[C@@H]1[C@@H]2[C@@H](O)C[C@]2(C=O)[C@@H](C(=O)CO)CC[C@@H]12` [ALDOSTERONE] the “ABSOLUTE BASOPHIL” value (72 h, time 3 day) was 0 CELLS/uL, the “ABSOLUTE EOSINOPHIL” value (72 h, time 3 day) was 0 CELLS/uL and the “ABSOLUTE LYMPHOCYTE” value (72 h, time 3 day) was 11286 CELLS/uL. For the same compound, the “ABSOLUTE MONOCYTE” value (72 h, time 3 day) was 180.67 CELLS/uL, the “ABSOLUTE SEGMENTED NEUTROPHIL” value (72 h, time 3 day) was 1866.67 CELLS/uL and the BASOPHIL (72 h, time 3 day) was 0%. For the same compound, the EOSINOPHIL (72 h, time 3 day) was 0%, the “ERYTHROCYTE COUNT” value (72 h, time 3 day) was 5.69 x10E6/uL and the HEMATOCRIT (72 h, time 3 day) was 34.17%. The HEMOGLOBIN (72 h, time 3 day) was 12.73 G/DL, the “LEUKOCYTE COUNT” value (72 h, time 3 day) was 13.33 x10E3/uL and the LYMPHOCYTE (72 h, time 3 day) was 84.67%. For the same compound, the “MEAN CORPUSCULAR HEMOGLOBIN” value (72 h, time 3 day) was 22.37 pg, the “MEAN CORPUSCULAR HEMOGLOBIN CONCENTRATION” value (72 h, time 3 day) was 37.3 G/DL and the “MEAN CORPUSCULAR VOLUME” value (72 h, time 3 day) was 60.03 fL. The MONOCYTE (72 h, time 3 day) was 1.33%, the NEUTROPHIL (72 h, time 3 day) was 14% and the “NUCLEATED RED BLOOD CELLS” value (72 h, time 3 day) was 0.33 /100WBC. For the same compound, the “PLATELET COUNT” value (72 h, time 3 day) was 1067.67 x10E3/uL, the “ALANINE AMINOTRANSFERASE” value (72 h, time 3 day) was 52.33 u/L and the ALBUMIN (72 h, time 3 day) was 3.8 G/DL. For the same compound, the “ALKALINE PHOSPHATASE” value (72 h, time 3 day) was 293.67 u/L, the “ASPARTATE AMINOTRANSFERASE” value (72 h, time 3 day) was 90 u/L and the “BLOOD UREA NITROGEN” value (72 h, time 3 day) was 15.67 mg/dL. For the same compound, the “CARBON DIOXIDE” value (72 h, time 3 day) was 32 mmol/L, the CHLORIDE (72 h, time 3 day) was 100 MEQ/L and the CHOLESTEROL (72 h, time 3 day) was 66.33 mg/dL. For the same compound, the CREATININE (72 h, time 3 day) was 0.14 mg/dL, the GLUCOSE (72 h, time 3 day) was 146 mg/dL and the “LACTATE DEHYDROGENASE” value (72 h, time 3 day) was 443 u/L. For the same compound, the LIPASE (72 h, time 3 day) was 9.33 u/L, the PHOSPHORUS (72 h, time 3 day) was 11.27 mg/dL and the POTASSIUM (72 h, time 3 day) was 5.07 MEQ/L. For the same compound, the SODIUM (72 h, time 3 day) was 146.93 MEQ/L, the “TOTAL BILIRUBIN” value (72 h, time 3 day) was 0.2 mg/dL and the “TOTAL PROTEIN” value (72 h, time 3 day) was 5.73 G/DL. The “URIC ACID” value (72 h, time 3 day) was 1.5 mg/dL, the “ABSOLUTE BASOPHIL” value (120 h, time 5 day) was 0 CELLS/uL and the “ABSOLUTE EOSINOPHIL” value (120 h, time 5 day) was 69 CELLS/uL. The “ABSOLUTE LYMPHOCYTE” value (120 h, time 5 day) was 17030 CELLS/uL, the “ABSOLUTE MONOCYTE” value (120 h, time 5 day) was 489 CELLS/uL and the “ABSOLUTE SEGMENTED NEUTROPHIL” value (120 h, time 5 day) was 1812 CELLS/uL. For the same compound, the BASOPHIL (120 h, time 5 day) was 0%, the EOSINOPHIL (120 h, time 5 day) was 0.33% and the “ERYTHROCYTE COUNT” value (120 h, time 5 day) was 5.8 x10E6/uL. The HEMATOCRIT (120 h, time 5 day) was 34.77%, the HEMOGLOBIN (120 h, time 5 day) was 12.97 G/DL and the “LEUKOCYTE COUNT” value (120 h, time 5 day) was 19.4 x10E3/uL. The LYMPHOCYTE (120 h, time 5 day) was 87.33%, the “MEAN CORPUSCULAR HEMOGLOBIN” value (120 h, time 5 day) was 22.4 pg and the “MEAN CORPUSCULAR HEMOGLOBIN CONCENTRATION” value (120 h, time 5 day) was 37.3 G/DL. For the same compound, the “MEAN CORPUSCULAR VOLUME” value (120 h, time 5 day) was 60.03 fL, the MONOCYTE (120 h, time 5 day) was 2.67% and the NEUTROPHIL (120 h, time 5 day) was 9.67%. For the same compound, the “NUCLEATED RED BLOOD CELLS” value (120 h, time 5 day) was 0 /100WBC, the “PLATELET COUNT” value (120 h, time 5 day) was 1473 x10E3/uL and the “ALANINE AMINOTRANSFERASE” value (120 h, time 5 day) was 47.67 u/L. For the same compound, the ALBUMIN (120 h, time 5 day) was 3.77 G/DL, the “ALKALINE PHOSPHATASE” value (120 h, time 5 day) was 252 u/L and the “ASPARTATE AMINOTRANSFERASE” value (120 h, time 5 day) was 83 u/L. The “BLOOD UREA NITROGEN” value (120 h, time 5 day) was 11.33 mg/dL, the “CARBON DIOXIDE” value (120 h, time 5 day) was 36.33 mmol/L and the CHLORIDE (120 h, time 5 day) was 96.67 MEQ/L. It also gave a CHOLESTEROL (120 h, time 5 day) of 64.33 mg/dL, a CREATININE (120 h, time 5 day) of 0.13 mg/dL and a GLUCOSE (120 h, time 5 day) of 142.67 mg/dL. The “LACTATE DEHYDROGENASE” value (120 h, time 5 day) was 335 u/L, the LIPASE (120 h, time 5 day) was 9 u/L and the PHOSPHORUS (120 h, time 5 day) was 11.97 mg/dL. The POTASSIUM (120 h, time 5 day) was 5.4 MEQ/L, the SODIUM (120 h, time 5 day) was 147.3 MEQ/L and the “TOTAL BILIRUBIN” value (120 h, time 5 day) was 0.17 mg/dL. For the same compound, the “TOTAL PROTEIN” value (120 h, time 5 day) was 5.53 G/DL, the “URIC ACID” value (120 h, time 5 day) was 1.93 mg/dL and the “ABSOLUTE BASOPHIL” value (time 14 day) was 0 CELLS/uL. For the same compound, the “ABSOLUTE EOSINOPHIL” value (time 14 day) was 65.4 CELLS/uL, the “ABSOLUTE LYMPHOCYTE” value (time 14 day) was 13364.4 CELLS/uL and the “ABSOLUTE MONOCYTE” value (time 14 day) was 314 CELLS/uL. For the same compound, the “ABSOLUTE SEGMENTED NEUTROPHIL” value (time 14 day) was 2076.2 CELLS/uL, the BASOPHIL (time 14 day) was 0% and the EOSINOPHIL (time 14 day) was 0.6%. The “ERYTHROCYTE COUNT” value (time 14 day) was 6.35 x10E6/uL, the HEMATOCRIT (time 14 day) was 37.42% and the HEMOGLOBIN (time 14 day) was 13.62 G/DL. For the same compound, the “LEUKOCYTE COUNT” value (time 14 day) was 15.82 x10E3/uL, the LYMPHOCYTE (time 14 day) was 84% and the “MEAN CORPUSCULAR HEMOGLOBIN” value (time 14 day) was 21.48 pg. For the same compound, the “MEAN CORPUSCULAR HEMOGLOBIN CONCENTRATION” value (time 14 day) was 36.4 G/DL, the “MEAN CORPUSCULAR VOLUME” value (time 14 day) was 59.08 fL and the MONOCYTE (time 14 day) was 2%. For the same compound, the NEUTROPHIL (time 14 day) was 13.4%, the “NUCLEATED RED BLOOD CELLS” value (time 14 day) was 0 /100WBC and the “PLATELET COUNT” value (time 14 day) was 1043.2 x10E3/uL. For the same compound, the “ALANINE AMINOTRANSFERASE” value (time 14 day) was 55.8 u/L, the ALBUMIN (time 14 day) was 4.14 G/DL and the “ALKALINE PHOSPHATASE” value (time 14 day) was 346.6 u/L. For the same compound, the “ASPARTATE AMINOTRANSFERASE” value (time 14 day) was 86.8 u/L, the “BLOOD UREA NITROGEN” value (time 14 day) was 12.2 mg/dL and the “CARBON DIOXIDE” value (time 14 day) was 43 mmol/L. It also gave a CHLORIDE (time 14 day) of 94.2 MEQ/L, a CHOLESTEROL (time 14 day) of 64.6 mg/dL and a CREATININE (time 14 day) of 0.17 mg/dL. The GLUCOSE (time 14 day) was 150.2 mg/dL, the “LACTATE DEHYDROGENASE” value (time 14 day) was 88.6 u/L and the LIPASE (time 14 day) was 9.2 u/L. It also gave a PHOSPHORUS (time 14 day) of 11.36 mg/dL, a POTASSIUM (time 14 day) of 4.4 MEQ/L and an SODIUM (time 14 day) of 147.78 MEQ/L. The “TOTAL BILIRUBIN” value (time 14 day) was 0.14 mg/dL, the “TOTAL PROTEIN” value (time 14 day) was 6.2 G/DL and the “URIC ACID” value (time 14 day) was 1.72 mg/dL.
